From patent publication US20250186435A1, “PHARMACEUTICAL FORMULATIONS AND THEIR PREPARATIONS FOR TREATMENT OF CANCER” (priority 2020, published 2025)

Columns and labels:
[1] = Solubility of API CLX-155 in organic solvents; format: physicochemical
[2] = Moisture and thermal sensitivity of CLX-155; format: physicochemical
From the text: Dry granulation is also referred as pre-compression or double compression and is an agglomeration process designed to improve the flow and compression characteristics of powders that would otherwise have poor flow &/or compressibility. The process involves compaction of powder particles into larger pieces or compacts which are subsequently broken down into granules that can be further processed into dosage forms. Dry granulation is suitable for the compound which is sensitive to moisture and temperature.

- Solubility ([1]; in Acetonitrile): Slightly Soluble
- Solubility ([1]; in Methanol): Freely soluble
- Stability towards moisture [2]: moisture sensitive
- Thermal stability [2]: thermolabile
Structure (SMILES): CCCCCCCC(=O)Nc1nc(=O)n([C@@H]2O[C@H](C)[C@@H](OC(C)=O)[C@H]2OC(C)=O)cc1F [CLX-155, (2R, 3R, 4R, 5R)-2-(5-Fluoro-4-octanamido 2-oxopyrimidine-1(2H)-yl)-5-methyl-tetrahydrofuran-3,4-diyl-diacetate]
